According to patent US9115106B2, “Use of 5-hydroxy-2-hydroxymethyl-γ-pyrone (HMP) as a leishmanicidal agent” (UNIVERSIDADE FEDERAL DO PARA, priority 2008, dated 2015):
Values joined by “and” are separate entries in the source; they are usually repeats but may differ in a detail not shown here. Equal entries are not always repeated.

Assays:
[1] = system: bacteria from various genera; details: Aerobacter, Bacillus, Escherichia, Staphylococcus and other genera; cited from earlier work
[2] = system: bacteria (bacilos, Salmonella); details: cited from earlier work
[3] = system: host cells infected with L. amazonensis; assay: Superoxide production, histochemical assay with Nitro Blue Tetrazolium (NBT); type: cell-based, murine; details: 50 μg/mL, compared with control cells
Procedure: (§1) The peritoneal murine macrophage cells were cultured at 37° C. and 5% CO2 in Dulbecco's modified Eagle's medium (DMEM) supplemented with 10% heat-inactivated sterile filtered fetal bovine serum (FCS), 10 mM Hepes, pH 7.3, 100 U/mL penicillin and 100 µg/mL streptomycin (all from Gibco BRL/Life Technologies, Middlesex, UK). Cells were used after 24 hours of culture. Host cells were cultivated and infected or not with L. amazonensis, before treating or not with HMP at the same concentrations described previously.

[4] = system: peritoneal murine macrophage cells; assay: Morphological analysis of host cells by light, fluorescence and electron microscopy; type: cell-based; details: treated cells compared with control cells
Procedure: (§2) The peritoneal murine macrophage cells were cultured at 37° C. and 5% CO2 in Dulbecco's modified Eagle's medium (DMEM) supplemented with 10% heat-inactivated sterile filtered fetal bovine serum (FCS), 10 mM Hepes, pH 7.3, 100 U/mL penicillin and 100 µg/mL streptomycin (all from Gibco BRL/Life Technologies, Middlesex, UK). Cells were used after 24 hours of culture. Firstly, morphological alterations were observed by light and fluorescence microscopy, as well as transmission and scanning electron microscopy in host cells, treated or not with 10, 20 and 50 μg/mL of HMP diluted in DMEM. Viability analyses performed by through Thiazolyl Blue (MTT) e Neutral Red (NR) assays.

thyroid = details: continued administration of high doses, rats; cited from earlier work
[5] = ideal doses of consumption; no risk in doses of 0.03-0.06 mg/kg/day; cited from earlier work
[6] = water, ethanol, or acetone; cited from earlier work
Leishmania promastigotes = assay: Leishmanicidal activity on promastigotes; type: cell-based, L. amazonensis; details: 50 μg/mL
melasma = details: HMP added to trichloroacetic acid and glycolic acid mixture; cited from earlier work
[7] = system: peritoneal murine macrophage cells; assay: Cellular viability by MTT and Neutral Red assays; type: cell-based; details: 10, 20 and 50 μg/mL HMP in DMEM
Procedure: as §2, with “Firstly, morphological alterations were observed by light and fluorescence microscopy, as well as transmission and scanning electron microscopy in host cells, treated or not with 10, 20 and 50 μg/mL of HMP diluted in DMEM.” left out

rats = details: cited from earlier work
leukemia P388 = leukemia P388 in mice; cited from earlier work
[8] = system: L. amazonensis amastigotes in infected macrophages; assay: Leishmanicidal activity on amastigotes during in vitro infection of macrophages; type: cell-based
Procedure: as §1, with “culture. L. amazonensis promastigotes were obtained from the Evandro Chagas Institute in NNN medium and maintained at 26° C. in RPMI1640 medium.” for “culture.”

tyrosinases 1 and 2 = details: Schistosoma mansoni eggs; cited from earlier work
[9] = estimated; cited from earlier work

## O=c1cc(CO)occ1O [HMP, 5-hydroxy-2-hydroxymethyl-γ-pyrone]
[1]
  antibacterial activity: inhibition of bacteria from various genera
[2]
  mutagenicity: evidence in the literature regarding the mutagenicity of HMP in bacteria
[3]
  superoxide production (NBT): greater superoxide production
[4]
  host cell activation (morphology): increase on actin filament polymerization and spreading
thyroid
  thyroid tumour induction: induction of thyroid adenomas
[5]
  toxic or genotoxic effects: does not contain toxic or genotoxic effects
[6]
  solubility: freely soluble
Leishmania promastigotes
  inhibition at 50 µg/mL: 68%
melasma
  effect on melasma treatment: improved treatment of melasma
[7]
  cytotoxic effect by MTT and NR assays: not due to unspecific cytotoxic effect
rats
  teratogenic effect: did not cause any teratogenic effect
Leukemia P388
  antitumoural activity: positive effects of antitumoural activity
[8]; activating host cell microbicidal response
  minimal concentration with leishmanicidal activity: 50 µg/mL
[8]; cells treated with 50 μg/mL
  reduction in amastigotes during in vitro infection: 79%
[8]; parasites inside the macrophages
  effect on intracellular amastigote (ultrastructural observations): causing morphological alterations and death
Tyrosinases 1 and 2
  inhibition of tyrosinase activity: inhibit the activity of tyrosinases 1 and 2
[9]
  pKa: 7.90 and 8.03
